Source: US20230242947A1, “GENETICALLY ENGINEERED RHODOPSEUDOMONAS PALUSTRIS” (priority 2021, published 2023)
Where two headings read alike, the source gives them in different places.

Assays:
[1] = system: WT TIE-1 with an empty vector (pRhokS-2); type: cell-based, Rhodopseudomonas palustris TIE-1; settings: for Doubling time: WT with pAB423; for effect on TIE-1 growth of the amount produced in the study: amounts produced by the engineered strains (n-butanol up to 4.98 mg/L; acetone up to about 290 mg/L)
Experimental: Toxicity Study. WT TIE-1 with an empty vector (pRhokS-2) was used to test the tolerance of TIE-1 for acetone and n-butanol. To test the tolerance, 0, 0.25, 0.5, 1, or 2% n-butanol (v/v), or 0, 0.1, 0.25, 0.5, 1, or 2% acetone (v/v), was added to FW media with acetate (10 mM). Growth was monitored by recording OD660 overtime.

[2] = system: phiC31 integrase (Streptomyces phage phiC31?); assay: cell_activity

Compound `CC(C)=O` [acetone] has a Doubling time ([1]; acetone 1960 mg/L in media) of 6.74 h, a Doubling time ([1]; acetone 3920 mg/L in media) of 5.82 h and a Doubling time ([1]; acetone 7840 mg/L in media) of 5.56 h. The Doubling time ([1]; acetone 15680 mg/L in media) was 4.88 h and the “effect on TIE-1 growth of the amount produced in the study” value [1] was “does not limit TIE-1's growth”.

“phiC31 attB site (in TIE-1 genome at glmUSX-recG locus)” gave an activity ([2]; attB x attP integration of mcherry in R. palustris TIE-1, editing efficiency 100% for genome-based system and constitutive plasmid system, about 80% for …) of 100%.

In the case of `CCCCO` [n-butanol], the Doubling time ([1]; n-butanol 2025 mg/L in media) is reported as 20.091 h, the Doubling time ([1]; n-butanol 4050 mg/L in media) is reported as “No growth” and the Doubling time ([1]; n-butanol 8100 mg/L in media) is reported as “No growth”. For the same compound, the Doubling time ([1]; n-butanol 16200 mg/L in media) was “No growth”, the “effect on TIE-1 growth of the amount produced in the study” value [1] was “does not limit the growth of TIE-1” and the “lowest inhibitory concentration of n-butanol for TIE-1” value ([1]; toxicity assay, FW media with acetate (10 mM)) was 4050 mg/L.

“phiC31 attP site (on suicide plasmid pWB081/pWB088)” was tested, and the activity ([2]; attP donor plasmid partner of attB, same integration assay, about 80% with inducible plasmid system) was 100%.
